Experimental data: patent US7189524B1, “Receptor ligands and methods of modulating receptors” (Amgen, Inc., priority 2002, dated 2007)

How the values were obtained:
[1] = tested on: human adipocytes; experiment: Inhibition of forskolin-stimulated lipolysis of human adipocytes (glycerol release); type: cell-based; conditions: Adipocyte, 0.5 μM Forskolin, 16 hours, glycerol concentration, read-out: EC50 (anti-lipolysis)
[2] = biological target: T1, TGR4b (Homo sapiens, UniProt Q8TDS4); experiment: Aequorin assay for intracellular calcium, CHO cells transfected with TGR4b; type: cell-based; conditions: summary of Table 1
T1 construct: expressed in transfected cells; host or cells: CHO cells, transient
Method: (§1) Aequorin catalyses the oxidation of coelenterazine, but only in the presence of Ca^2+ ions and thus can be used as an indicator of intracellular calcium levels. Briefly, the assays were performed using the following methodology.
(§2) CHO cells were transiently transfected with expression plasmids encoding TGR4b or TGR183 together with a plasmid encoding mitochondria-targeting apoaequorin. The plasmids were co-transfected with chimeric G protein Gαqi9, which has the C-terminal 9 amino acids from the Gαq protein replaced with the C-terminal 9 amino acids form the Gαi protein. Cells were harvested 24 hr later and loaded with coelenterazine for 2 hr at 37 C. Aequorin assay was performed on MicroLumat 96 luminometer (Perkin Elmer).

[3] = biological target: TGR183 (Homo sapiens, UniProt Q9BXC0); conditions: concentration of 50 μM, FIG. 3
Method: as §1, §2

T1 sequence (Q8TDS4 whole entry): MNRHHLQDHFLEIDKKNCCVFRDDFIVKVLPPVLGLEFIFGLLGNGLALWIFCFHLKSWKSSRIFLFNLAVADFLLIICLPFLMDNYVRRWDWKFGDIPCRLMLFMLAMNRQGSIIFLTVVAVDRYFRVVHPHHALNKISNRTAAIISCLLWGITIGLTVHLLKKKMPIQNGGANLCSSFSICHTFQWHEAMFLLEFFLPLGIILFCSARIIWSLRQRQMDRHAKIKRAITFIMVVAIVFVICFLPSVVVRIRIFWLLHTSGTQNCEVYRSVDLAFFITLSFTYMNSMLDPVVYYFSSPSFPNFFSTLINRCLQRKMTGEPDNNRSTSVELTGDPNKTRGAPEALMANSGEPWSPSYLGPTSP
Chain of TGR183 (Q9BXC0 whole entry): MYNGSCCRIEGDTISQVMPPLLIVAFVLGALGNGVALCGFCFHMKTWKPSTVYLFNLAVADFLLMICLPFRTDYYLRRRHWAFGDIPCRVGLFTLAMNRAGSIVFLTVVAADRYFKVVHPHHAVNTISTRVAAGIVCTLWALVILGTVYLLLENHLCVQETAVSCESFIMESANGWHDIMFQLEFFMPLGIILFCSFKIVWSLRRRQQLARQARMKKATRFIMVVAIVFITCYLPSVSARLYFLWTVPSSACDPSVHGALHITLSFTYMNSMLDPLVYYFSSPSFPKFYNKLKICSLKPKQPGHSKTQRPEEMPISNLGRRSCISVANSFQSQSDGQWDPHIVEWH

Row | Compound | EC50 [1] [nM] | activity on TGR4b in words (binding and activity assays) [2] | TGR183-mediated increase in intracellular calcium [3]
1 | O=C(O)c1ccnnc1 [Pyridazine 4-carboxylic acid] | 2800 | also active in binding and activity assays | –
2 | O=C(O)c1cnccn1 [2-pyrazinecarboxylic acid] | 6500 | also active in binding and activity assays | –
3 | NC(=O)c1cccnc1 [Nicotinamide] | – | completely inactive | –
4 | Cl.O=C(Cl)c1cccnc1 [nicotinoyl chloride HCl] | 150 | agonist and binding activity similar to that of nicotinic acid | –
5 | O=C(O)c1cccnc1 [nicotinic acid, 3-pyridinecarboxylic acid] | 62 | – | stimulated a TGR183-mediated increase in intracellular calcium
6 | O=C(O)c1cncc(F)c1 [5-fluoro nicotinic acid] | – | much lower potency | –
7 | Cl.O=C(O)Cc1cccnc1 [3-pyridineacetic acid HCl] | 770 | also exhibits activity | –
8 | Cc1cnc(C(=O)O)c[n+]1[O-] | 6000 | – | –
